In US20250206757A1 (GASHERBRUM BIO, INC., priority 2022, published 2025):

biological target: GLP-1 Receptor (Homo sapiens, UniProt P43220); experiment: GLP-1R agonist cAMP stimulation assay (HEK293/GLP1R/CRE-LUC cells, HTRF cAMP dynamic 2 kit); type: cell-based; details: HEK293/CRE-Luc cell line stably expressing the GLP-1 Receptor; 30 min incubation at 37° C.
Method in brief: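 HEK293 cells stably expressing GLP-1R with CRE-Luc, 1000 cells/well in DPBS with 0.5 mM IBMX and 0.10% BSA, exposed to half-log compound dilutions for 30 min at 37 °C. cAMP measured by HTRF (665/615 nm) after 1 h at room temperature.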

Sequence of GLP-1 Receptor (P43220 24-463): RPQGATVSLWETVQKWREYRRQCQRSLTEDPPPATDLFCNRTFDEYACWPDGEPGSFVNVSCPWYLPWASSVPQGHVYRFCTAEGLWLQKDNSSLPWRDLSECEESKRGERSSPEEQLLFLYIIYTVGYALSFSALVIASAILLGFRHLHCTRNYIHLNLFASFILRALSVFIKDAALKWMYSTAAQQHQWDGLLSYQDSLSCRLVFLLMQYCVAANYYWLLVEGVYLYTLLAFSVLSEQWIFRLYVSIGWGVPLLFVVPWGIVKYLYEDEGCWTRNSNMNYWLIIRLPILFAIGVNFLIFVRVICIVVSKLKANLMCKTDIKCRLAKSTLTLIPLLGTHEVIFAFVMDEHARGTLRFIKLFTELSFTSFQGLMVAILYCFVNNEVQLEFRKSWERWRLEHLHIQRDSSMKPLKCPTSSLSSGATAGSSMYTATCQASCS

`O=c1[nH]c(-c2cnc3c(c2)nc(CN2CCc4cc(C(F)(F)F)c(OCc5ccc(Cl)cc5F)nc4C2)n3C[C@@H]2CCO2)no1` [Compound 29, 3-[2-({2-[(4-chloro-2-fluorophenyl)methoxy]-3-(trifluoromethyl)-5,6,7,8-tetrahydro-1,7-naphthyridin-7-yl}methyl)-3-{[(2S)-oxetan-2-yl]methyl}-3H-imidazo[4,5-b]pyridin-6-yl]-4,5-dihydro-1,2,4-oxadiazol-5-one] and `O=c1[nH]nc(-c2cc3nc(CN4CCc5cc(C(F)(F)F)c(OCc6ccc(Cl)cc6F)nc5C4)n(C[C@@H]4CCO4)c3cn2)[nH]1` [Compound 97, 3-[2-({2-[(4-chloro-2-fluorophenyl)methoxy]-3-(trifluoromethyl)-5,6,7,8-tetrahydro-1,7-naphthyridin-7-yl}methyl)-3-{[(2S)-oxetan-2-yl]methyl}-3H-imidazo[4,5-c]pyridin-6-yl]-4,5-dihydro-1H-1,2,4-triazol-5-one] cannot be ordered by EC50: less than 1 nM for the first, less than 1 nM for the second.

`Fc1cc(Cl)cc(F)c1COc1nc2c(cc1C(F)(F)F)CCN(Cc1nc3cc(-c4nnn[nH]4)cnc3n1C[C@@H]1CCO1)C2` [Compound 89, 2-[(4-chloro-2,6-difluorophenyl)methoxy]-7-[(3-{[(2S)-oxetan-2-yl]methyl}-6-(11H-1,2,3,4-tetrazol-5-yl)-3H-imidazo[4,5-b]pyridin-2-yl)methyl]-3-(trifluoromethyl)-5,6,7,8-tetrahydro-1,7-naphthyridine] and `Fc1cc(Cl)ccc1COc1nc2c(cc1C(F)(F)F)CCN(Cc1nc3c(F)c(-c4nnn[nH]4)ccc3n1C[C@@H]1CCO1)C2` [Compound 88, 2-[(4-chloro-2-fluorophenyl)methoxy]-7-[(4-fluoro-1-{[(2S)-oxetan-2-yl]methyl}-5-(1H-1,2,3,4-tetrazol-5-yl)-1H-1,3-benzodiazol-2-yl)methyl]-3-(trifluoromethyl)-5,6,7,8-tetrahydro-1,7-naphthyridine] cannot be ordered by EC50: less than 1 nM for the first, less than 1 nM for the second.

First: CC(F)(F)c1nnc(-c2cc3nc(CN4CCc5cc(C(F)(F)F)c(OCc6ccc(Cl)cc6F)nc5C4)n(C[C@@H]4CCO4)c3cn2)[nH]1 [Compound 66, 2-[(4-chloro-2-fluorophenyl)methoxy]-7-({6-[5-(1,1-difluoroethyl)-4H-1,2,4-triazol-3-yl]-3-{[(2S)-oxetan-2-yl]methyl}-3H-imidazo[4,5-c]pyridin-2-yl}methyl)-3-(trifluoromethyl)-5,6,7,8-tetrahydro-1,7-naphthyridine]
Second: CNC(=O)c1cc2nc(CN3CCc4cc(C(F)(F)F)c(OCc5ccc(Cl)cc5F)nc4C3)n(C[C@@H]3CCO3)c2cn1 [Compound 24, 2-({2-[(4-chloro-2-fluorophenyl)methoxy]-3-(trifluoromethyl)-5,6,7,8-tetrahydro-1,7-naphthyridin-7-yl}methyl)-N-methyl-3-{[(2S)-oxetan-2-yl]methyl}-3H-imidazo[4,5-c]pyridine-6-carboxamide]
The EC50 of the first is lower: less than 1 nM for the first, 1 to 300 nM for the second. The first is the more potent here.

`O=c1[nH]c(-c2cc3nc(CN4CCc5cc(C(F)(F)F)c(OCc6ccc(Cl)cc6)nc5C4)n(C[C@@H]4CCO4)c3cn2)no1` [Compound 31, 3-[2-({2-[(4-chlorophenyl)methoxy]-3-(trifluoromethyl)-5,6,7,8-tetrahydro-1,7-naphthyridin-7-yl}methyl)-3-{[(2S)-oxetan-2-yl]methyl}-3H-imidazo[4,5-c]pyridin-6-yl]-4,5-dihydro-1,2,4-oxadiazol-5-one] and `Cc1nnc(-c2ccc3c(nc(CN4CCc5cc(C(F)(F)F)c(OCc6ccc(Cl)cc6)nc5C4)n3C[C@@H]3CCO3)c2F)[nH]1` [Compound 68, 2-[(4-chlorophenyl)methoxy]-7-{[4-fluoro-5-(5-methyl-4H-1,2,4-triazol-3-yl)-1-{[(2S)-oxetan-2-yl]methyl}-1H-1,3-benzodiazol-2-yl]methyl}-3-(trifluoromethyl)-5,6,7,8-tetrahydro-1,7-naphthyridine] cannot be ordered by EC50: less than 1 nM for the first, less than 1 nM for the second.
